{"source": "paper PMC10573198", "about": "“Synthesis, Physicochemical Characterization using a Facile Validated HPLC Quantitation Analysis Method of 4-Chloro-phenylcarbamoyl-methyl Ciprofloxacin and Its Biological Investigations” (International Journal of Molecular Sciences, 2023)", "key": {"Topoisomerase IV": {"target": "T1, Topoisomerase IV (Staphylococcus aureus, UniProt P0C1S7+Q2FYS4)", "T1 construct": "gene parC; with Topoisomerase IV subunit B (ParE); kDNA substrate", "T1 sequence (Q2FYS4 whole entry)": "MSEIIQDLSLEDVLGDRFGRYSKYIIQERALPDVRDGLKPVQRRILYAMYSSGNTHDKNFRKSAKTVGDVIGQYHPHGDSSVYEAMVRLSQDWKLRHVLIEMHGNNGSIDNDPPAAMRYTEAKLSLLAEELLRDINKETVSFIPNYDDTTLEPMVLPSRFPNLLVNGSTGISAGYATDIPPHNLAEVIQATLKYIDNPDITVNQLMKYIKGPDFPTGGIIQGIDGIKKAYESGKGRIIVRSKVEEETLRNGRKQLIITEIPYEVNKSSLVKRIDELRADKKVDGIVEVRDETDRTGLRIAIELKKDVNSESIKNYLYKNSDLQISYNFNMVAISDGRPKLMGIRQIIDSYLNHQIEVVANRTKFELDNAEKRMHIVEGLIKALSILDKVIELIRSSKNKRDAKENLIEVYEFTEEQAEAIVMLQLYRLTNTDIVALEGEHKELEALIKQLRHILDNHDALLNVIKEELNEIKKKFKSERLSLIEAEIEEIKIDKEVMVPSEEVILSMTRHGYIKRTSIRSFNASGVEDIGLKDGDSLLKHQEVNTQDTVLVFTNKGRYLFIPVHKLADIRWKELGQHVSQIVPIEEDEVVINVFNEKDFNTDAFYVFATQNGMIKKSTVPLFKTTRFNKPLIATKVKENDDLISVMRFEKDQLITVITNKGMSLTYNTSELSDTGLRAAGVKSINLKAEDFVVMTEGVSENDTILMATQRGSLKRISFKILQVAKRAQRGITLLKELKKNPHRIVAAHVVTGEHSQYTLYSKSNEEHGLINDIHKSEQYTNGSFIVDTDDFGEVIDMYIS", "T1 sequence (P0C1S7 whole entry)": "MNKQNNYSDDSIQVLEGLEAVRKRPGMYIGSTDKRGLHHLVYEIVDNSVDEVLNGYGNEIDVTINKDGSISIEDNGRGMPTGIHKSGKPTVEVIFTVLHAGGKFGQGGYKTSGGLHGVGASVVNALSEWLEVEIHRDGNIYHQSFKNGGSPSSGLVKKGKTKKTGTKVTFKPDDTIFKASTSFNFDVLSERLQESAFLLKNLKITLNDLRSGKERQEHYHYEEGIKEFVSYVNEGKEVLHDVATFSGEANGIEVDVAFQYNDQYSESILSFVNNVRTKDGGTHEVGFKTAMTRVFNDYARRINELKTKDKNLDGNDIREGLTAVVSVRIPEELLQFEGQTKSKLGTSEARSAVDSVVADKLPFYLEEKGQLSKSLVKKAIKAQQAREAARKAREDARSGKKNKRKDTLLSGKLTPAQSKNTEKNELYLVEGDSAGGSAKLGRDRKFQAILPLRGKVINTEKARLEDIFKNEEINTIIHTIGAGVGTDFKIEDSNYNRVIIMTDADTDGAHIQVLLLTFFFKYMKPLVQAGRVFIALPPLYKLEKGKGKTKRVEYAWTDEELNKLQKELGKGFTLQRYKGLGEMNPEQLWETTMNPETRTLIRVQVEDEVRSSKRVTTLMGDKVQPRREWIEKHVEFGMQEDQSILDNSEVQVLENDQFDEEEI", "assay": "Topo IV kDNA decatenation assay, agarose gel", "format": "biochemical"}, "DNA gyrase": {"target": "T2, DNA gyrase (Staphylococcus aureus, UniProt P0A0K8+P20831)", "T2 construct": "gene gyrA; with DNA gyrase subunit B (GyrB); plasmid DNA", "T2 sequence (P0A0K8 2-644)": "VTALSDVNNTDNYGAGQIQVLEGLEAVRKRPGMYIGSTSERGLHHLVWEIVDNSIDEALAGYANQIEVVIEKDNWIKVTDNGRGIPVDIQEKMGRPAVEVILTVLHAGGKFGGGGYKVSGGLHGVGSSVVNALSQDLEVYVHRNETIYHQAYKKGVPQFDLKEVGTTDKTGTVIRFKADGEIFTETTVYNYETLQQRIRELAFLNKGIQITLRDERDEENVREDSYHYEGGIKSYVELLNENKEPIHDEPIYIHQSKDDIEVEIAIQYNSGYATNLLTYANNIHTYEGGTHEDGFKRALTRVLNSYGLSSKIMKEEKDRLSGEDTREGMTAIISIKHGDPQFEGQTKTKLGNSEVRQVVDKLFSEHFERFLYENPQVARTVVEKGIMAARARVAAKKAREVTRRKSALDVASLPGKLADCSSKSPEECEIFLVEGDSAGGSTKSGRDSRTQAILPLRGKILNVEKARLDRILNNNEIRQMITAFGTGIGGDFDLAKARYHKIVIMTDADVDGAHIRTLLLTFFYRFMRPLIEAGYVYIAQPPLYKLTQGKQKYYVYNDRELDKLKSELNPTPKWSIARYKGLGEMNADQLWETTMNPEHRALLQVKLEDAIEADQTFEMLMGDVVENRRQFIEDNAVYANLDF", "T2 sequence (P20831 whole entry)": "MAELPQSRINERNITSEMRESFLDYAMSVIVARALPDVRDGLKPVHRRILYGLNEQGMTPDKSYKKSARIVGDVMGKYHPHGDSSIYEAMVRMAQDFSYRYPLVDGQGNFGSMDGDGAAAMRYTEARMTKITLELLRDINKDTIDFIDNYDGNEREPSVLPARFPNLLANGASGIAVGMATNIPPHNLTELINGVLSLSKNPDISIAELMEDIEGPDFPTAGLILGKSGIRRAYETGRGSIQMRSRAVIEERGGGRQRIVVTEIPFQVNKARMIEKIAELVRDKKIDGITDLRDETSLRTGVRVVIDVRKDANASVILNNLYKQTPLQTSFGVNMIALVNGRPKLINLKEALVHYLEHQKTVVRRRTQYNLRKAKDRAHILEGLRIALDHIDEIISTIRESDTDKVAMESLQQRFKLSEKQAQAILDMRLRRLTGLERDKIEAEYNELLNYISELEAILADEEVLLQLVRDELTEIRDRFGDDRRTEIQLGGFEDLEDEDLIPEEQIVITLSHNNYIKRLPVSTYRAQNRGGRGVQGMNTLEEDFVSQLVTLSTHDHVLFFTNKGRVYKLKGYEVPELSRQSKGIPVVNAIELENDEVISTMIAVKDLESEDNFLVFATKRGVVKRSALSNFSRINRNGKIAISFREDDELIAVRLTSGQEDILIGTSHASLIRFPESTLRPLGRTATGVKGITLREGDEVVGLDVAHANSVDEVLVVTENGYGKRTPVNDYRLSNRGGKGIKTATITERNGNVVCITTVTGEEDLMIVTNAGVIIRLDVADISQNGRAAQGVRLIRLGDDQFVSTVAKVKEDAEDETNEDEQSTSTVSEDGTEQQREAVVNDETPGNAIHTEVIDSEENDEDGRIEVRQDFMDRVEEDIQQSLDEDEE", "assay": "S. aureus gyrase supercoiling assay, relaxed pBR322, agarose gel", "format": "biochemical"}}, "data": [{"smiles": "O=C(CN1CCN(c2cc3c(cc2F)c(=O)c(C(=O)O)cn3C2CC2)CC1)Nc1ccc(Cl)cc1", "note": "[Cpx-Drv]", "values": [{"measurement": "IC50", "setting": "Topoisomerase IV", "value": 3.83, "unit": "µM"}, {"measurement": "IC50", "setting": "DNA gyrase", "value": 13.5, "unit": "µM"}]}]}
